# Assays:
# [1] = tested on: SUM159 human breast cancer cells; experiment: ALDEFLUOR assay of ALDH positive (cancer stem) cell fraction; assay type: cell-based; settings: for percentage of ALDH positive cell population: 100 μM BSO, 1 μM DTPP 24 h, 500 nM AUR 15 min, control 2.61%; for ALDH positive cell population decreased to (relative to control): single agent
# Procedure: FIG. 16: The fraction of Aldehyde dehydrogenase activity positive (ALDH+) cancer cells (also known as early progenitor cancer stem cells) is decreased in SUM159 human breast cancer cells treated with inhibitors of glutathione and thioredoxin metabolism (BSO, AUR, respectively) combined with DTPP. Asynchronously growing cultures of SUM159 were incubated with 100 μM BSO and/or 1 μM DTPP for 24 hours in HMEC media. 500 nM AUR were added into cell culture 15 minutes before the assay. Monolayer cultures were harvested and trypsinized, washed once with PBS and labeled 40 minutes in PBS at 37° C. with BAAA (1 μmol/1 per 1 x 10^6 cells). The negative controls were also added with 50mmol/L diethylaminobenzaldehyde (DEAB). After labeling, Hochest dye for viability assay was added and then kept on ice. Each sample was then analyzed for the ALDH positive cell percentage of 100,000 cells by flow cytometry. Errors represent Mean ±1 SD of 3 samples from two separate experiments […], * p <0.05 as compared to Control.
# Estimation of Cancer stem cell fractions using the Aldefluor assay: The ALDEFLUOR kit (StemCell Technologies, Durham, N.C., USA) was used to determine the subpopulation of cancer cells with a high ALDH enzymatic activity. SUM159 human breast cancer cells were plated and treated as described earlier in clonogenic survival experiment. After the exposure, the cells were trypsinized and washed with PBS once then re-suspended in ALDEFLUOR assay buffer containing ALDH substrate (BAAA, 1 μmol/l per 1×10^6 cells) and incubated for 40 minutes at 37° C. As negative control, for each sample of cells an aliquot was treated with 50 mmol/L diethylaminobenzaldehyde (DEAB), a specific ALDH inhibitor. In order to sort out non-viable cells, each sample received 4 μg/ml of Hoechst 33258 (Molecular Probes, Invitrogen). Cells were filtered through […] and kept on ice until analysis. Samples were analyzed by using a Becton Dickinson LSR II with 355 nm, 488 nm, and 633 nm lasers. (Becton Dickinson Immunocytometry System, INC., Mountain View, Calif.). The ALDH positive cells of 100,000 cells were determined by using the sorting gate established with DEAB negative control and Hochest viability control. The ALDH positive cells were represented by percentage of total 100,000 cell events.
# SUM159 cells = experiment: MitoSOX red oxidation, SUM159; assay type: cell-based, human
# Procedure: (§1) FIGS. 4A-4C: MitoSOX oxidation in SUM159, MDA-MB231 and HMECs cells treated with BSO, DTPP and AUR. Asynchronously growing cultures of SUM159 (Panel A) MDA-MB231 (Panel B) and HMECs (Panel C) were plated and treated as described in FIG. 1. Monolayer cultures were harvested and trypsinized, washed once with PBS and labeled 20 minutes with 2 μM MitoSOX (in 0.1% DMSO) in PBS containing 5 mM pyruvate at 37° C. Each sample was then analyzed for the Mean fluorescence Intensity (MFI) of 10,000 cells by flow cytometry. Samples were assayed in triplicate; mean±1 SD of 1 experiment containing 3 treatment dishes per group (n=3), * or ^p<0.001 as compared to Control.
# (§2) MitoSOX™ red oxidation to estimate mitochondrial superoxide production: To determine if DTPP can alter steady-state levels of superoxide originating from mitochondria in SUM159, MDA-MB231 and HMEC cells, the cationic superoxide sensitive dye, MitoSOX™red (Molecular Probes), was used. Cells were plated and treated as described earlier in clonogenic survival experiment. After the exposure, cells were trypsinized and washed with 5 mM/L pyruvate containing PBS once then labeled with MitoSOX™red (2 μM, in 0.1% DMSO, 20 minutes) at 37° C. After labeling, cells were kept on ice. Samples were analyzed using a FACScan flowcytometer (Becton Dickinson Immunocytometry System, INC., Mountain View, Calif.) (excitation 488 nm, emission 585 nm band-pass filter). The mean fluorescence intensity of 10,000 cells was analyzed in each sample and corrected for autofluorescence from unlabeled cells. The MFI data was normalized to control levels.
# MDA-MB231 cells = experiment: MitoSOX red oxidation, MDA-MB231; assay type: cell-based, human
# Procedure: as §1, §2
SMILES,percentage of ALDH positive cell population [1] [%],ALDH positive cell population decreased to (relative to control) [1],"change in MitoSOX oxidation, in words (SUM159 cells; SUM159)","change in MitoSOX oxidation, in words (MDA-MB231 cells)","effect on ALDH positive cell population, in words ([1]; 100 μM BSO 24 h)","increase in MitoSOX red oxidation relative to control (SUM159 cells; SUM159, 1 μM DTPP, 100 μM BSO 24 h, 500 nM AUR 15 min) [fold]",total amount of mitochondrial O2.- of SUM159 cells relative to HMECs after DTPP (SUM159 cells; SUM159 vs HMEC) [fold],"increase in MitoSOX red oxidation relative to control (MDA-MB231 cells; 1 μM DTPP, 100 μM BSO 24 h, 500 nM AUR 15 min) [fold]"
"CC[PH](CC)(CC)[Au][S][C@@H]1O[C@H](COC(C)=O)[C@@H](OC(C)=O)[C@H](OC(C)=O)[C@H]1OC(C)=O [AUR, S-triethylphosphinegold(I)-2,3,4,6-tetra-O-acetyl-1-thio-β-D-glucopyranoside]",1.11,around 50%,did not exhibit any change in MitoSOX oxidation,did not exhibit any change in MitoSOX oxidation,,,,
"CCCCS(=N)(=O)CCC(N)C(=O)O [BSO, L-buthionine-[S,R]-sulfoximine, reference compound]",,,did not exhibit any change in MitoSOX oxidation,did not exhibit any change in MitoSOX oxidation,not able to decrease the ALDH positive cell population,,,
"CCCCCCCCCC[P+](c1ccccc1)(c1ccccc1)c1ccccc1 [DTPP, Decyl-Triphenylphosphonium]",1.16,around 50%,,,,9,2,12
